Patent US20250325570A1, “DOSE AND REGIMEN FOR A HETEROCYCLIC PHOSPHINIC COMPOUND” (PHOST'IN THERAPEUTICS, priority 2022, published 2025)
Values joined by “and” are separate entries in the source; they are usually repeats but may differ in a detail not shown here. Equal entries are not always repeated. Where two headings read alike, the source gives them in different places.

Key:
[1] = First-in-human trial, dose escalation phase: full-course PK profiling of PST3.1a; type: in vivo; conditions: for AUC / C-max / T1/2 / T-Max: oral; for Pre dosing: oral bid
Source text: The proposed clinical trial is a first-in-human trial (FIH) in patients with advanced solid tumours, including a dose escalation phase (part I) enrolling patients with any type of tumour with safety/tolerability as the primary endpoint, pharmacokinetics, evaluation of a potential food effect, and efficacy as secondary endpoints, followed by an expansion phase (part II) recruiting patients with glioblastoma (GBM—23 patients, cohort 1), triple negative breast cancer (TNBC—15 patients, cohort 2) and other selected solid tumours (30 patients, cohort 3). The dose for the expansion phase is selected based on the results of the escalation phase. Pharmacodynamics and response prediction is an exploratory objective of this whole FIH study.
To characterize the pharmacokinetics (PK) profile of PST3.1a by establishing the PK profile of the drug including assessment of a potential food effect on drug exposure.
A standard 3+3 design is followed for the escalation phase. PST3.1a is administered orally twice a day (bid) continuously in cycles of 21 days. At each Dose Level (DL), three patients are included and the first patient is observed for at least 21 days before enrolling the following two. Three additional patients are enrolled at each DL if a Dose Limiting Toxicity (DLT) is observed in the first three patients. No intra-patient dose escalation is allowed. The Maximum Tolerated Dose (MTD) is defined as the highest dose at which a DLT is observed in 0/3 or 1/6 patients and is considered as the recommended phase 2 dose (RP2D).
The dose escalation phase includes two steps: • In step 1, one dose (DL1) of PST3.1a is tested, corresponding to the dose of 10 mg/kg/day bid.
Two full-course PK profiling are obtained for each patient: one at C1D1 (Cycle 1/Day 1) in fasted state patients and another at C2D1 (Cycle 2/Day 1) in fed state patients (omitting the evening dose of PST3.1a on CID1 and C2D1). • In step 2, three DL (DL2a to 4a) with PST3.1a administered to fasted patients at the dose of 20, 40 and 70 mg/kg/day bid (i.e. twice a day), respectively, and/or three DL (DL2b to 4b) with PST3.1a administered to fed patients at the dose of 10, 20 and 40 mg/kg/day bid, respectively, could be opened.
For each patient included in the second step of the dose escalation, a full-course PK profiling is performed: • a. for DL2a, 3a and 4a, at C1D1 in fasted state; • b. for DL2b, 3b and 4b at C1D1 in fed state; • c. for DL2b only, 4 days before beginning treatment (C1D4), in fasted state.
PST3.1a is supplied as a drinkable solution in vials of 2 mL and 10 mL. Patients are provided with an appropriate number of 2 mL and 10 mL vials, as well as with a specific dosing device, in order to combine them to reach the appropriate volume. Volumes of DP to be administered at each dosing occasion are rounded in a standardized way according to patient body weight range, as described in Table 2.
PST3.1a is administered per os every 12±1 hours to fasted patients or after a regular meal, according to the schedule of the DL in which the patient is included. Fasting is defined as no food intake for 2 hours before and two hours after study drug administration. Cycles is of 21 days. If treatment is delayed for reasons other than toxicity, a maximal delay of 1 day is accepted.

[2] = Dynamic vapor sorption (DVS) analysis of the crystalline form; type: physicochemical
Source text: In a particular embodiment, the crystalline form of the invention is non-hygroscopic.

[3] = DL1 = 10 mg/kg/day, FED patients
[4] = DL1 = 10 mg/kg/day, fasted patients
[5] = DL2 = 20 mg/kg/day, fasted patients
[6] = DL3 = 40 mg/kg/day, fasted patients

For O=[P@@]1(c2ccccc2)O[C@H](COCc2ccccc2)[C@@H](OCc2ccccc2)[C@H](OCc2ccccc2)C1O (some centres unmarked) [PST3.1a, 3-Hydroxy-4,5-bis-benzyloxy-6-benzyloxymethyl-2-phenyl-2-oxo-2λ5-[1,2]oxaphosphinane], the “Food effect on drug exposure (fed vs fasted patients)” value ([1]; DL1 = 10 mg/kg/day, comparison of Table 4) was “significative fed effect”, the AUC [1, 3] was 426 ng·h/mL and the C-max [1, 3] was 43 ng/mL and 27.9 ng/mL. For the same molecule, the T1/2 [1, 3] was 11.7 h, the AUC [1, 4] was 225 ng·h/mL and the C-max [1, 4] was 42 ng/mL and 28 ng/mL. It also gave a T1/2 [1, 4] of 8.1 h, a Pre dosing [1, 5] of 20.6 ng/mL and a C-max [1, 5] of 67.7 ng/mL. For the same molecule, the T-Max [1, 5] was 1 h, the Pre dosing [1, 6] was 25.4 ng/mL and 46.3 ng/mL and the AUC [1, 6] was 650.6 ng·h/mL and 626.6 ng·h/mL. For the same molecule, the C-max [1, 6] was 56.2 ng/mL and 97.6 ng/mL and 108.9 ng/mL, the T-Max [1, 6] was 1.5 h and 2 h (2×) and the half-life ([1]; human, in vivo, po, 10 mg/kg/day, DL1 = 10 mg/kg/day, FED patients) was 17.5 h. For the same molecule, the half-life ([1]; human, in vivo, po, 10 mg/kg/day, DL1 = 10 mg/kg/day, fasted patients) was 9.2 h, the AUC ([1]; human, in vivo, po, 10 mg/kg/day, DL1 = 10 mg/kg/day, FED patients, read-out: AUC) was 587 ng·h/mL and the AUC ([1]; human, in vivo, po, 10 mg/kg/day, DL1 = 10 mg/kg/day, fasted patients, read-out: AUC) was 310 ng·h/mL. For the same molecule, the half-life ([1]; human, in vivo, po, 20 mg/kg/day, DL2 = 20 mg/kg/day, fasted patients) was 7.9 h, the AUC ([1]; human, in vivo, po, 20 mg/kg/day, DL2 = 20 mg/kg/day, fasted patients, read-out: AUC) was 340 ng·h/mL and the AUC ([1]; human, in vivo, po, 40 mg/kg/day, DL3 = 40 mg/kg/day, fasted patients, read-out: AUC) was 336 ng·h/mL. For the same molecule, the Hygroscopicity ([2]; crystalline form) was “non-hygroscopic” and the “Weight loss in DVS analysis” value ([2]; relative humidity range 0% RH to 95% RH) was “lower than 0.1%”.
